Literature values as cited in US7407975B2, “Epothilone derivatives, method for producing same and their pharmaceutical use” (priority 1997, dated 2008).

System: P-glycoprotein-forming multiresistant tumor lines
Details: in comparison to taxol

## C/C(=C\c1csc(C)n1)[C@@H]1C[C@@H]2O[C@@H]2CCC[C@H](C)[C@H](O)[C@@H](C)C(=O)C(C)(C)[C@@H](O)CC(=O)O1 [Epothilone A, epothilone A]
  activity against P-glycoprotein-forming multiresistant tumor lines: significantly higher activity

## C/C(=C\c1csc(C)n1)[C@@H]1C[C@@H]2O[C@]2(C)CCC[C@H](C)[C@H](O)[C@@H](C)C(=O)C(C)(C)[C@@H](O)CC(=O)O1 [Epothilone B, epothilone B]
  activity against P-glycoprotein-forming multiresistant tumor lines: significantly higher activity
